Measured values as given in US20230271959A1, “HETEROCYCLIC COMPOUND AS BCL-2 INHIBITOR” (Beijing Innocare Pharma Tech Co., Ltd., priority 2020, published 2023).

Legend:
[1] = system: RS4;11 cells (acute lymphoblastic leukemia cells); test: RS4;11 cell proliferation, CellTilter-Glo luminescence cell viability assay; type: cell-based; conditions: Homo sapiens, RS4-11; CTG readout after 48 hours
Procedure, shortened: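 RS4;11 cells plated overnight were exposed for 48 h at 37 °C, 5% CO2 to an 8-point, 4-fold compound dilution series; the vehicle control contained 0.2% DMSO. Viability was read by CellTiter-Glo luminescence. Percent inhibition was referenced to no-cell and DMSO controls, and IC50 came from a four-parameter sigmoidal fit.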

[2] = target: T1, human recombinant Bcl-2 protein (Homo sapiens, UniProt P10415); test: Fluorescence polarization test for inhibition of BCL-2 binding to FITC-BIM; conditions: 5 nM BCL-2, 5 nM FITC-BIM, read-out: FP BCL-2 IC50
T1 construct: purchased Beijing Yigiao Shenzhou Biotechnology Co., Ltd. 10195-HOSE
Procedure, shortened: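 FP competition: compound preincubated 15 min with recombinant human Bcl-2 (diluted to 5 nM), then FITC-BIM (diluted to 5 nM) added for 30 min at room temperature in PBS pH 7.4 with 1 mM DTT. Polarization read at 480/535 nm; IC50 from 8-point 4-fold series fitted by four-parameter equation.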

[3] = target: T2, human recombinant Bcl-XL protein (Homo sapiens, UniProt Q07817); test: Fluorescence polarization test for inhibition of BCL-XL binding to FITC-BIM; conditions: 10 nM BCL-XL, 10 nM FITC-BIM, read-out: FP BCL-XL IC50
T2 construct: purchased Beijing Yiqiao Shenzhou Biotechnology Co., Ltd. 10455-H0SE
Procedure, shortened: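 Human recombinant Bcl-XL (10 nM diluted stock) preincubated with compound 15 min at RT in PBS pH 7.4, 1 mM DTT, then FITC-BIM peptide (10 nM diluted stock) added for 30 min in dark. FP read at ex 480/em 535 nm; no-protein wells = 100% inhibition; IC50 from 8-point 4-fold dilution curve fit.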

T1 sequence (P10415 whole entry): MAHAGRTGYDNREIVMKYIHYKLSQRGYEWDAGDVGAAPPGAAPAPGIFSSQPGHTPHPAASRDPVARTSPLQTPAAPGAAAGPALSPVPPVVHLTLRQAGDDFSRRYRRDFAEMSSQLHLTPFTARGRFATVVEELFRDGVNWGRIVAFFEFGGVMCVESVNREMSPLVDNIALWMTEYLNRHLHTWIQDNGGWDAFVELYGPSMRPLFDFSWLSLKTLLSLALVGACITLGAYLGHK
T2 sequence (Q07817 whole entry): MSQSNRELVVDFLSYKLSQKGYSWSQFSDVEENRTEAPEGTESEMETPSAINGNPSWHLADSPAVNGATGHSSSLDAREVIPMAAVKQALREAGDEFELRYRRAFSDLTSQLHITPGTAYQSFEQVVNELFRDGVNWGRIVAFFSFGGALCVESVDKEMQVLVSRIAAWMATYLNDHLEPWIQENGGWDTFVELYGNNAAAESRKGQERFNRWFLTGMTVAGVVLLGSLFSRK

## C[C@@H]1CN(c2ccc(C(=O)NS(=O)(=O)c3ccc(NC[C@H]4COCCO4)c([N+](=O)[O-])c3)c(Oc3cnc4[nH]ccc4c3)c2)CCN1CC1=C(c2ccc(Cl)cc2)CC(C)(C)C(C)(C)C1 [Example 42, N-((4-((((S)-1,4-dioxan-2-yl)methyl)amino)-3-nitrophenyl)sulfonyl)-2-((1H-pyrrolo[2,3-b]pyridin-5-yl)oxy)-4-((R)-4-((4′-chloro-4,4,5,5-tetramethyl-3,4,5,6-tetrahydro-[1,1′-biphenyl]-2-yl)methyl)-3-methylpiperazin-1-yl) benzamide]
[1]
  IC50: 0.01 µM
[2]
  IC50: 0.00153 µM
[3]
  IC50: > 1 µM

## C[C@@H]1CN(CC2=C(c3ccc(Cl)cc3)CCC(C)(C)C2)CCN1c1ccc(C(=O)NS(=O)(=O)c2cc(F)c(NCC3CCOCC3)c([N+](=O)[O-])c2)c(Oc2cnc3[nH]ccc3c2)c1 [Example 43, (R)-2-((1H-pyrrolo[2,3-b]pyridin-5-yl)oxy)-4-(4-((4′-chloro-4,4-dimethyl-3,4,5,6-tetrahydro[1,1′-biphenyl]-2-yl)methyl)-2-methylpiperazin-1-yl)-N-((3-fluoro-5-nitro-4--(((tetrahydro-2H-pyran-4-yl)methyl)amino)phenyl)sulfonyl)benzamide]
[1]
  IC50: 0.161 µM
[2]
  IC50: 0.00633 µM
[3]
  IC50: > 1 µM

## C[C@@H]1CN(CC2=C(c3ccc(Cl)cc3)CCC(C)(C)C2)CCN1c1ccc(C(=O)NS(=O)(=O)c2ccc(NC[C@H]3COCCO3)c([N+](=O)[O-])c2)c(Oc2cnc3[nH]ccc3c2)c1 [Example 44, N-((4-((((S)-1,4-dioxan-2-yl)methyl)amino)-3-nitrophenyl)sulfonyl)-2-((1H-pyrrolo[2,3-b]pyridin-5-yl)oxy)-4-((R)-4-((4′-chloro-4,4-dimethyl-3,4,5,6-tetrahydro-[1,1′-biphenyl]-2-yl)methyl)-2-methylpiperazin-1-yl) benzamide]
[1]
  IC50: 0.054 µM
[2]
  IC50: 0.00498 µM
[3]
  IC50: > 1 µM

## C[C@@H]1CN(CC2=C(c3ccc(Cl)cc3)CCC(C)(C)C2)CCN1c1ccc(C(=O)NS(=O)(=O)c2cc(F)c(NC[C@H]3COCCO3)c([N+](=O)[O-])c2)c(Oc2cnc3[nH]ccc3c2)c1 [Example 45, N-((4-((((S)-1,4-dioxan-2-yl)methyl)amino)-3-fluoro-5-nitrophenyl)sulfonyl)-2-((1H-pyrrolo[2,3-b]pyridin-5-yl)oxy)-4-((R)-4-((4′-chloro-4,4-dimethyl-3,4,5,6-tetrahydro-[1,1′-biphenyl]-2-yl)methyl)-2-methylpiperazin-1-yl)benzamide]
[1]
  IC50: 0.052 µM
[2]
  IC50: 0.00422 µM
[3]
  IC50: > 1 µM

## C[C@@H]1CN(CC2=C(c3ccc(Cl)cc3)CC(C)(C)CC2)CCN1c1ccc(C(=O)NS(=O)(=O)c2cc(F)c(NC[C@H]3COCCO3)c([N+](=O)[O-])c2)c(Oc2cnc3[nH]ccc3c2)c1 [Example 46]
[1]
  IC50: 0.018 µM
[2]
  IC50: 0.00109 µM
[3]
  IC50: > 1 µM

## C[C@H]1CN(c2ccc(C(=O)NS(=O)(=O)c3cc(F)c(NC[C@H]4COCCO4)c([N+](=O)[O-])c3)c(Oc3cnc4[nH]ccc4c3)c2)CCN1CC1=C(c2ccc(Cl)cc2)CC(C)(C)CC1 [Example 47, N-((4-((((S)-1,4-dioxan-2-yl)methyl)amino)-3-fluoro-5-nitrophenyl)sulfonyl)-2-((1H-pyrrolo[2,3-b]pyridin-5-yl)oxy)-4-((S)-4-((4′-chloro-5,5-dimethyl-3,4,5,6-tetrahydro-[1,1′-biphenyl]-2-yl)methyl)-3-methylpiperazin-1-yl) benzamide]
[1]
  IC50: 0.486 µM
[2]
  IC50: > 0.1 µM
[3]
  IC50: > 1 µM

## C[C@H]1CN(c2ccc(C(=O)NS(=O)(=O)c3ccc(NC[C@H]4COCCO4)c([N+](=O)[O-])c3)c(Oc3cnc4[nH]ccc4c3)c2)CCN1CC1=C(c2ccc(Cl)cc2)CC(C)(C)CC1 [Example 48, N-((4-((((S)-1,4-dioxan-2-yl)methyl)amino)-3-nitrophenyl)sulfonyl)-2-((1H-pyrrolo[2,3-b]pyridin-5-yl)oxy)-4-((S)-4-((4′-chloro-5,5-dimethyl-3,4,5,6-tetrahydro-[1,1′-biphenyl]-2-yl)methyl)-3-methylpiperazin-1-yl) benzamide]
[1]
  IC50: 0.229 µM
[2]
  IC50: 0.0638 µM
[3]
  IC50: > 1 µM
